Results from ChEMBL document CHEMBL1153670 (Bioorg Med Chem Lett, 1995).

Legend:
[1] = system: HCT-116; test: Potency relative to paclitaxel in a tubulin polymerization assay in HCT116 cell line; format: functional, Homo sapiens
[2] = system: HCT-116; test: In vitro cytotoxicity was determined by inhibition against HCT116 cell line proliferation after 72 hours of incubation; format: cell-based; conditions: Homo sapiens, HCT-116, 72 h
[3] = system: M109; test: In vivo cytotoxicity of intraperitoneally administered compound at dose 50 mgkg/inj was determined against ip implanted murine M-109 lung carcinoma; format: organism-based; design: dose mgkg, route intraperitoneal; conditions: mouse
[4] = system: HCT-116; test: cells; conditions: Homo sapiens
[5] = system: M109; test: In vivo cytotoxicity of intraperitoneally administered compound at dose 32 mg/kg/inj was determined against ip implanted murine M-109 lung carcinoma; format: organism-based; design: route intraperitoneal; conditions: mouse
[6] = system: M109; test: In vivo cytotoxicity of intraperitoneally administered compound at dose 1.6 mg/kg/inj was determined against ip implanted murine M-109 lung carcinoma; format: organism-based; design: route intraperitoneal; conditions: mouse
[7] = system: M109; test: In vivo cytotoxicity of intraperitoneally administered compound at dose 16 mg/kg/inj was determined against ip implanted murine M-109 lung carcinoma; format: organism-based; design: route intraperitoneal; conditions: mouse
[8] = system: M109; test: In vivo cytotoxicity of intraperitoneally administered compound at dose 25 mgkg/inj was determined against ip implanted murine M-109 lung carcinoma; format: organism-based; design: dose mgkg, route intraperitoneal; conditions: mouse
[9] = system: M109; test: In vivo cytotoxicity of intraperitoneally administered compound at dose 3 mg/kg/inj was determined against ip implanted murine M-109 lung carcinoma; format: organism-based; design: route intraperitoneal; conditions: mouse

| Compound | Tubulin polymerization ratio [1] | IC50 [2] | T/C [3] | IC50 [4] | T/C [5] | T/C [6] | T/C [7] | T/C [8] | T/C [9] |
| --- | --- | --- | --- | --- | --- | --- | --- | --- | --- |
| COC(=O)O[C@@]12CO[C@@H]1C[C@H](O)[C@@]1(C)C(=O)[C@H](OC(C)=O)C3=C(C)[C@@H](OC(=O)[C@H](O)C(NC(=O)c4ccccc4)c4ccccc4)C[C@@](O)([C@@H](OC(=O)c4ccccc4)C12)C3(C)C (some centres undefined) | 0.41 | 2 nM | 161% | 0.5 nM |  |  |  |  |  |
| COC(=O)O[C@@]12CO[C@@H]1C[C@H](O)[C@@]1(C)C(=O)[C@H](OC(C)=O)C3=C(C)[C@@H](OC(=O)[C@H](O)C(NC(=O)OC(C)(C)C)c4ccco4)C[C@@](O)([C@@H](OC(=O)c4ccccc4)C12)C3(C)C (some centres undefined) | 0.66 | 1.6 nM |  | 0.4 nM | 183% |  |  |  |  |
| CC(=O)O[C@H]1C(=O)[C@@]2(C)C([C@H](OC(=O)c3ccccc3)[C@]3(O)C[C@H](OC(=O)[C@H](O)C(NC(=O)OC(C)(C)C)c4ccccc4)C(C)=C1C3(C)C)[C@]1(OC(=O)C3CC3)CO[C@@H]1C[C@@H]2O (some centres undefined) | 0.22 | 0.8 nM |  | 0.2 nM |  | 115% |  |  |  |
| CC(=O)O[C@H]1C(=O)[C@@]2(C)C([C@H](OC(=O)c3ccccc3)[C@]3(O)C[C@H](OC(=O)[C@H](O)C(NC(=O)c4ccccc4)c4ccco4)C(C)=C1C3(C)C)[C@]1(OC(=O)C3CCC3)CO[C@@H]1C[C@@H]2O (some centres undefined) | 0.29 | 1.6 nM |  | 0.4 nM |  |  | 188 mg kg-1 injection-1 |  |  |
| CCCC(=O)O[C@@]12CO[C@@H]1C[C@H](O)[C@@]1(C)C(=O)[C@H](OC(C)=O)C3=C(C)[C@@H](OC(=O)[C@H](O)C(NC(=O)c4ccccc4)c4ccccc4)C[C@@](O)([C@@H](OC(=O)c4ccccc4)C12)C3(C)C (some centres undefined) | 0.61 | 1.1 nM |  | 0.25 nM |  |  |  | 164 mg kg-1 injection-1 |  |
| CC(=O)O[C@H]1C(=O)[C@@]2(C)C([C@H](OC(=O)c3ccccc3)[C@]3(O)C[C@H](OC(=O)[C@H](O)C(NC(=O)c4ccccc4)c4ccco4)C(C)=C1C3(C)C)[C@]1(OC(=O)C3CC3)CO[C@@H]1C[C@@H]2O (some centres undefined) | 0.33 | 0.9 nM |  | 0.22 nM |  |  |  |  | 132 mg kg-1 injection-1 |
